Reference: patent US10934274B2, “Quinoline derivatives as TAM RTK inhibitors” (Qurient Co., Ltd., priority 2015, dated 2021)

Tests used:
[1] = biological target: T1, Mer (Homo sapiens, UniProt Q12866); assay: LanthaScreen Eu kinase binding assay, Mer; conditions: Tracer 236
T1 construct: purchased Life Technologies
T1 sequence (Q12866 21-999): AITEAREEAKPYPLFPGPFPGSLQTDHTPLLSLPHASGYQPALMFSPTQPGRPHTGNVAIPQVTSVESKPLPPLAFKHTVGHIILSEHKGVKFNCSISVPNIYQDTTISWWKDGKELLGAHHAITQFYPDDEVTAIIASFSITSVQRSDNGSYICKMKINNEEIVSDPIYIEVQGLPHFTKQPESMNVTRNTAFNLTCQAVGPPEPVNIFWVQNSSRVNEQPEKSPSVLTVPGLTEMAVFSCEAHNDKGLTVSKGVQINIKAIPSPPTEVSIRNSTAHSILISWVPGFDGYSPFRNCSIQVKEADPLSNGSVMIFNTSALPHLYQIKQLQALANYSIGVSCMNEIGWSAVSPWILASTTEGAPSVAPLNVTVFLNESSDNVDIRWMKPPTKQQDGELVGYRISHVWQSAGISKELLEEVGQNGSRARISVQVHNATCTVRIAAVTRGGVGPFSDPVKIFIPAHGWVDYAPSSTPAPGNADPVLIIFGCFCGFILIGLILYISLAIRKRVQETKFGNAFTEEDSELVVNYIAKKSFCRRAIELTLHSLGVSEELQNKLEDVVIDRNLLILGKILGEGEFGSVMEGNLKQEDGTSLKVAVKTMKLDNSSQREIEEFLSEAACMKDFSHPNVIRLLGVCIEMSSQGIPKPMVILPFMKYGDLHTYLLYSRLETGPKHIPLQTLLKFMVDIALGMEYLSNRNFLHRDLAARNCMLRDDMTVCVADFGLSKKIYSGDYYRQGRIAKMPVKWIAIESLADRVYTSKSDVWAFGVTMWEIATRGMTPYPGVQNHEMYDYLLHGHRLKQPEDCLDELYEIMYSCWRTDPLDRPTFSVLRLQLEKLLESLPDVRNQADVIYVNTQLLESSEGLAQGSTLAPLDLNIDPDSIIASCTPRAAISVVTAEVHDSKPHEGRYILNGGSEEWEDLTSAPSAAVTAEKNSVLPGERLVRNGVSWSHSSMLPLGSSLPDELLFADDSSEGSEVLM

[2] = biological target: T2, Axl (Homo sapiens, UniProt P30530); assay: LanthaScreen Eu kinase binding assay, Axl; conditions: Tracer 236
T2 construct: purchased Life Technologies
T2 sequence (P30530 26-894): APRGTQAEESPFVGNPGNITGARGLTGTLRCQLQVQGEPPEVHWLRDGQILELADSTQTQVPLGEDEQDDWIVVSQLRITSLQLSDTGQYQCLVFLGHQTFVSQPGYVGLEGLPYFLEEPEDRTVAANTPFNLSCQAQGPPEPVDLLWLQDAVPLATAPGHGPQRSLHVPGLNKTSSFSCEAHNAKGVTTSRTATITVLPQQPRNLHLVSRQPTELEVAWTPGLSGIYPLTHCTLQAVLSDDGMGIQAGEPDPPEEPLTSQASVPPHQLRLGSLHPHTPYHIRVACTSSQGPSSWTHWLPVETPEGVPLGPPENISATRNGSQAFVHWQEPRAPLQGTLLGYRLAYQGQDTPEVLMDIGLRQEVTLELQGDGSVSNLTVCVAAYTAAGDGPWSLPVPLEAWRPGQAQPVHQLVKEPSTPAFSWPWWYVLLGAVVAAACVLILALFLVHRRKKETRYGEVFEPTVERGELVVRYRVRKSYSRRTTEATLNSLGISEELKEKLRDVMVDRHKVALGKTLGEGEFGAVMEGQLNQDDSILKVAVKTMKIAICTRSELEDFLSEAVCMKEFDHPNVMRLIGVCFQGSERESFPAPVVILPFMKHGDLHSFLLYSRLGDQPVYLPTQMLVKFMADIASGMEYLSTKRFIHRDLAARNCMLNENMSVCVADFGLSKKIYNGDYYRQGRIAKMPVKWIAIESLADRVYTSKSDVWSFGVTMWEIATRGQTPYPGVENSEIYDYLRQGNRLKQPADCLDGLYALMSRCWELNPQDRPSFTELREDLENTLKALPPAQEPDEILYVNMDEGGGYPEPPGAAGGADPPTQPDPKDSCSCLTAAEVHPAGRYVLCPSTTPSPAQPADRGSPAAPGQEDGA

[3] = biological target: T3, Met (Homo sapiens, UniProt P08581); assay: LanthaScreen Eu kinase binding assay, Met; conditions: Tracer 236, read-out: cMet kinase binding activity (Kd)
T3 construct: purchased Life Technologies
T3 sequence (P08581 25-1390): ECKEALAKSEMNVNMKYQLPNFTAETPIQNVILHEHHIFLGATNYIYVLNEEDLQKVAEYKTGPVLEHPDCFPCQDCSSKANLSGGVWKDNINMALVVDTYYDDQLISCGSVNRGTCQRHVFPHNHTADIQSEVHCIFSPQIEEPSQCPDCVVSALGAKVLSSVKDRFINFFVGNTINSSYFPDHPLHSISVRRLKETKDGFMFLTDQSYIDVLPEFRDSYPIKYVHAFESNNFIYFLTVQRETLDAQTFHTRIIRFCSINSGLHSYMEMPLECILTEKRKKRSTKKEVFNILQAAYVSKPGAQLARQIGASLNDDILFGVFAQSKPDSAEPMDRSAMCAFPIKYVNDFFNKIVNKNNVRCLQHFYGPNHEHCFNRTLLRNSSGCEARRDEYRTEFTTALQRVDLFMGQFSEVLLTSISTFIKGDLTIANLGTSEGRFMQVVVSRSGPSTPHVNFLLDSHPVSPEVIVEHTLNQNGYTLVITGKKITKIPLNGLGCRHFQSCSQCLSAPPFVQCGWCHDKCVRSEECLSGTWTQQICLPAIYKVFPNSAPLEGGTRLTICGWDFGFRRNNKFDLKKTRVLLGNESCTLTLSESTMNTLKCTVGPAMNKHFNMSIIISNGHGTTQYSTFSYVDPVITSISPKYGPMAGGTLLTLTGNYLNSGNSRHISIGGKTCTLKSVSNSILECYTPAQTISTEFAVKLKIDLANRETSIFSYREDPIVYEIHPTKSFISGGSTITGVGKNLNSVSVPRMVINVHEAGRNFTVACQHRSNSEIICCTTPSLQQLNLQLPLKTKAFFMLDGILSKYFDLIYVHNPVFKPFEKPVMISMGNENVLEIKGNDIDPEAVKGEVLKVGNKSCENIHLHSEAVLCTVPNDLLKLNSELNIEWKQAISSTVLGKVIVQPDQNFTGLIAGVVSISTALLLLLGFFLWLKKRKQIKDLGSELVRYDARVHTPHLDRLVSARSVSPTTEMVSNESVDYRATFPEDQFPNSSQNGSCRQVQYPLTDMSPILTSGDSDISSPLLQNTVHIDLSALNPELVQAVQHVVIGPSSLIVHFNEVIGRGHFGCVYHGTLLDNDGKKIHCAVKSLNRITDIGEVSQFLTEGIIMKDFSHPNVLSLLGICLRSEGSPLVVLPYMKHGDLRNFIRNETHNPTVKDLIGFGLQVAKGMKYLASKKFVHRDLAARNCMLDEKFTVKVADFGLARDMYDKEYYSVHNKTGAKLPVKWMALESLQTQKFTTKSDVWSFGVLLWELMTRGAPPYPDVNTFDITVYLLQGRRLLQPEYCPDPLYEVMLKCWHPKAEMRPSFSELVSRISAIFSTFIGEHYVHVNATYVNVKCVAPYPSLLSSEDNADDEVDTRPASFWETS

Row | SMILES | Kd [1] [nM] | Kd [2] [nM] | Kd [3] [nM]
1 | CCOc1cn(-c2nc[nH]n2)nc1C(=O)Nc1ccc(Oc2ccnc3cc(OC)c(OC)cc23)cn1 [Compound 168] | < 100 | < 100 | < 100
2 | CCOc1cn(-c2cnccc2C(F)(F)F)nc1C(=O)Nc1ccc(Oc2ccnc3cc(OC)c(OC)cc23)c(F)c1 [Compound 198] | < 100 | < 100 | < 100
3 | CCOc1cn(-c2cnccc2C(C)(C)O)nc1C(=O)Nc1ccc(Oc2ccnc3cc(OC)c(OC)cc23)c(F)c1 [Compound 195] | < 100 | < 100 | < 100
4 | CCOc1cnn(-c2ccc(C(F)(F)F)cc2C)c1C(=O)Nc1ccc(Oc2ccnc3cc(OC)c(OC)cc23)cn1 [Compound 102] | 100 to 1000 | < 100 | ≥ 1000
5 | CCOc1cn(-c2ccc(F)c(CO)c2)nc1C(=O)Nc1ccc(Oc2ccnc3cc(OC)c(OC)cc23)cn1 [Compound 128] | < 100 | < 100 | < 100
6 | COc1cc2nccc(Oc3ccc(NC(=O)c4nn(-c5ccc(F)cc5C)cc4OCC(F)(F)F)nc3)c2cc1OC [Compound 203] | < 100 | < 100 | < 100
7 | CCOc1cn(C2CCCN(C)C2)nc1C(=O)Nc1ccc(Oc2ccnc3cc(OC)c(OC)cc23)cc1F (stereo not drawn) [Compound 211] | 100 to 1000 | 100 to 1000 | 100 to 1000
8 | CCOc1cn(-c2cscn2)nc1C(=O)Nc1ccc(Oc2ccnc3cc(OC)c(OC)cc23)cn1 [Compound 13] | < 100 | < 100 | < 100
9 | CCOc1cn(-c2ccc(OC(F)(F)F)cc2C)nc1C(=O)Nc1ccc(Oc2ccnc3cc(OC)c(OC)cc23)cn1 [Compound 113] | < 100 | < 100 | 100 to 1000
10 | CCOc1cn(-c2cnccc2C(F)(F)F)nc1C(=O)Nc1ccc(Oc2ccnc3cc(OC)c(OC)cc23)cn1 [Compound 170] | < 100 | < 100 | < 100
11 | CCOc1cn(-c2ccc(OC(F)(F)F)cc2Cl)nc1C(=O)Nc1ccc(Oc2ccnc3cc(OC)c(OC)cc23)c(F)c1 [Compound 189] | < 100 | < 100 | < 100
12 | CCOc1cn(-c2cnc(C)cn2)nc1C(=O)Nc1ccc(Oc2ccnc3cc(OC)c(OC)cc23)cn1 [Compound 160] | < 100 | < 100 | < 100
13 | CCOc1cn(-c2cccnc2)nc1C(=O)Nc1ccc(Oc2ccnc3cc(OC)c(OC(F)(F)F)cc23)cn1 [Compound 199] | < 100 | < 100 | ≥ 1000
14 | CCOc1cn(-c2c(C)ccnc2C)nc1C(=O)Nc1ccc(Oc2ccnc3cc(OC)c(OC)cc23)c(F)c1 [Compound 188] | < 100 | < 100 | < 100
15 | CCOc1cn(-c2ccc(F)c(CN(C)C)c2)nc1C(=O)Nc1ccc(Oc2ccnc3cc(OC)c(OC)cc23)cn1 [Compound 124] | < 100 | < 100 | < 100
16 | CCOc1cn(-c2cnccc2C(C)=O)nc1C(=O)Nc1ccc(Oc2ccnc3cc(OC)c(OC)cc23)cn1 [Compound 182] | < 100 | < 100 | < 100
17 | CCOc1cn(-c2cn[nH]c2)nc1C(=O)Nc1ccc(Oc2ccnc3cc(OC)c(OC)cc23)cn1 [Compound 8] | < 100 | < 100 | < 100
18 | CCOc1cnn(-c2ccc(Cl)c(CN(C)C)c2)c1C(=O)Nc1ccc(Oc2ccnc3cc(OC)c(OC)cc23)cn1 [Compound 130] | < 100 | < 100 | < 100
